Where “and” joins values, the source holds several entries; their conditions need not be identical. Equal values may be shown once.
What was measured:
[1] = tested on: multiple myeloma U266 cell line; test: Cell viability (MTT) assay on U266; type: cell-based; settings: Homo sapiens; for IC50: U-266, U266, 48 h
Description: (§1) In this assay, culture media was prepared by adding fetal bovine serum (10%), L-glutamine (5 mM), penicillin (100 IU/mL), and streptomycin (100 µg/mL) to IMDM (Sigma-Aldrich, St. Louis, MO, USA). The cells (5 × 10^3 cells/well) were seeded into a 96-well plate filled with 100 µL of culture media and placed in a CO2 incubator at 37 °C. After 24 h, the cells were treated with MA, MB, and MAB with different concentrations (0.5, 1, 5, and 10 µM) for 48 h. Subsequently, 10 µL of the MTT solution (5 mg/mL, Sigma-Aldrich) was pipetted into each well. The cells were continuously incubated for 4 h. Finally, 100 µL of cell lysis buffer (10% SDS in 0.01 M HCl) was applied to dissolve the colored formazan crystals. Culture media instead of momilactones was used as the negative control. Meanwhile the drugs consisting of doxorubicin, all-trans retinoic acid (ATRA), the mixture of ATRA and arsenic trioxide (ATRA/ATO) (1:1, w/w), and bortezomib were tested as the standard inhibitors. The absorbance at 595 nm was scanned to determine the cell growth rate using a spectrophotometer (SpectraMAX M5, Molecular Devices, Sunnyvale, CA, USA). All tests were performed with three replications. The cytotoxic activity (% inhibition) of momilactones and/or inhibitors on the tested cell lines was as follows:Inhibition (%) = (ANC − AS)/ANC × 100(1) where ANC: absorbance of reaction with negative control, and AS: absorbance of reaction with momilactone and/or inhibitor.
(§2) Dose-responding curves and IC50 values (the required concentration for inhibiting 50% of cell viability) of momilactones and the standard inhibitors for cytotoxicity against tested cell lines were established. A lower IC50 indicates a stronger cytotoxic activity.

[2] = tested on: cleaved caspase-3/procaspase-3; test: Western blotting in HL-60: cleaved caspase-3/procaspase-3; type: cell-based, human; settings: HL-60, 5 µM, control 0.17
Description: (§3) The cells (5 × 10^5 cells/well) were cultured and treated in triplicate following the same methods as the apoptosis and cell cycle assays. The cell lysates were conducted by rinsing cells with PBS, followed by adding 2× loading buffer two times (4% SDS, 10% 2-mercaptoethanol, 20% glycerol, 0.004% bromophenol blue, 0.125 M Tris-HCl, pH 6.8). The extracted protein ([…]) was subjected to sodium dodecyl sulfate (SDS)-polyacrylamide gels, applying 10% acrylamide, and subsequently transferred to a polyvinylidene fluoride membrane (Takara Bio, Shiga, Japan) by electroblotting. The membrane was blocked using 3% skim milk in PBS-0.05% Tween 20 (PBS-T) at 25 °C for 1 h. The incubation with each antibody (2 µg/mL) against anti-rabbit total p-38/MAPK, phosphorylated p-38/MAPK, BCL-2, procaspase-3, cleaved caspase-3, CDK1/cdc2, cyclin B1, and GAPDH (BioLegend, San Diego, CA, USA) in blocking buffer was conducted overnight at 4 °C. The following step was performed by washing the membrane with PBS-T in triplicate. The collected membrane was incubated with a secondary antibody of horseradish peroxidase-labeled goat anti-rabbit IgG (20 ng/mL) (IBL, Gunma, Japan) at 37 °C for 1 h. […] The relative expression (RE) was calculated by normalizing the intensity of targeted proteins to the intensity of the housekeeping protein GAPDH.

[3] = tested on: cleaved caspase-3/procaspase-3; test: Western blotting in U266: cleaved caspase-3/procaspase-3; type: cell-based, human; settings: U266, 5 µM
Description: as §3

[4] = tested on: phosphorylated p-38/total p-38; test: Western blotting in HL-60: phosphorylated p-38/total p-38; type: cell-based, human; settings: HL-60, 5 µM, control 0.48
Description: as §3

[5] = tested on: multiple myeloma U266 cell line; test: Cell apoptosis (annexin V) assay on U266; type: cell-based, human; settings: U266, 5 µM
Description: (§4) The procedure was conducted in triplicate following Lam et al.. In brief, the cells (5 × 10^5 cells/well) were seeded into a 6-well plate filled with 1.5 mL of culture media and cultured in a CO2 incubator for 24 h with the same condition as mentioned in the MTT assay. The cells were then treated with momilactones at a concentration of 5 µM for 24 and 48 h. The non-treated cells were used as a control. Harvested cells were washed twice with cold phosphate-buffered saline (PBS). After that, the control and treated cells were incubated with annexin V-conjugated fluorescein isothiocyanate (FITC) (Biolegend, San Diego, CA, USA) and propidium iodide (PI) for 15 min at 25 °C. The obtained cells were dissolved in 450 µL of PBS. The solution was filtered by a nylon membrane to prevent cell clumping and kept on ice until analysis. The intensities of annexin V-FITC and PI and the percentages of apoptotic cells were instantly determined by a flow cytometer (BD, Franklin Lakes, NJ, USA).

[6] = tested on: acute promyelocytic leukemia HL-60 cell line; test: Cell viability (MTT) assay on HL-60; type: cell-based; settings: Homo sapiens; for IC50: HL-60, 48 h
Description: as §1, §2

BCL-2 [7] = test: Western blotting in HL-60: BCL-2; type: cell-based, human; settings: HL-60, 5 µM
Description: as §3

cyclin B1 = test: Western blotting in HL-60: cyclin B1; type: cell-based, human; settings: HL-60, 5 µM, control 1.17
Description: as §3

[8] = tested on: non-cancerous MeT-5A cell line; test: Cell cycle assay (PI, flow cytometry) on MeT-5A; type: cell-based, human; settings: 5 µM, 48 h
Description: (§5) The cells (5 × 10^5 cells/well) were cultured and treated in triplicate following the same methods as the apoptosis assay. The FxCycle PI/RNase staining solution was applied according to the manufacturer’s instructions (Calbiochem, Darmstadt, Germany). The cell cycle distribution at each phase of G1, S, and G2 was determined based on the cell’s DNA content. The percentages of cells in different phases of the cell cycle were quantified by a flow cytometer (BD, Franklin Lakes, NJ, USA). In brief, the collected cells were washed with ice-cold PBS. Subsequently, ice-cold PBS in pure ethanol was added to disperse the cells. The obtained solution was stored at 4 °C for 24 h for fixing. For analysis, the cells were incubated with 10 mg/mL of RNase A (Sigma-Aldrich) for 5 min on ice. The following step was conducted by adding 1 mg/mL of PI (in PBS). After incubating for 10 min at room temperature, the cells were dissolved in 450 µL of PBS. The solution was then filtered using a nylon membrane to remove cell clumping before analysis. Subsequently, the flow cytometric measurement was immediately performed.

[9] = tested on: acute promyelocytic leukemia HL-60 cell line; test: Cell apoptosis (annexin V) assay on HL-60; type: cell-based, human; settings: HL-60, 5 µM
Description: as §4

[10] = tested on: non-cancerous MeT-5A cell line; test: Cell apoptosis (annexin V) assay on MeT-5A; type: cell-based, human; settings: 5 µM
Description: as §4

[11] = tested on: acute promyelocytic leukemia HL-60 cell line; test: Cell cycle assay (PI, flow cytometry) on HL-60; type: cell-based, human; settings: HL-60, 5 µM
Description: as §5

CDK1 = test: Western blotting in HL-60: CDK1; type: cell-based, human; settings: HL-60, 5 µM, control 1.55
Description: as §3

[12] = tested on: phosphorylated p-38/total p-38; test: Western blotting in U266: phosphorylated p-38/total p-38; type: cell-based, human; settings: U266, 5 µM, control 1.00
Description: as §3

BCL-2 [13] = test: Western blotting in U266: BCL-2; type: cell-based, human; settings: U266, 5 µM
Description: as §3

[14] = tested on: non-cancerous MeT-5A cell line; test: Cell viability (MTT) assay on MeT-5A; type: cell-based; settings: Homo sapiens, 48 h
Description: as §1, §2

CC(C)C[C@H](NC(=O)[C@H](Cc1ccccc1)NC(=O)c1cnccn1)B(O)O [bortezomib, reference compound] showed an IC50 [1] of 8 nM.
For C=C[C@]1(C)CC[C@@H]2C(=C[C@H]3OC(=O)[C@]4(C)[C@H]3[C@]23CC[C@]4(O)OC3)C1 [MB, momilactone B], the “RE of cleaved caspase-3/procaspase-3” value ([2]; 24 h) was 0.56, the “RE of cleaved caspase-3/procaspase-3” value ([2]; 48 h) was 0.77 and the “increase of cleaved caspase-3/procaspase-3 expression over the control” value ([3]; 24 h) was 5.33 times. For the same molecule, the “increase of cleaved caspase-3/procaspase-3 expression over the control” value ([3]; 48 h) was 8.83 times, the “relative expression (RE) of phosphorylated p-38/total p-38” value ([4]; 24 h) was 1.15 and the “relative expression (RE) of phosphorylated p-38/total p-38” value ([4]; 48 h) was 0.96. For the same molecule, the “% apoptosis (FITC+)” value ([5]; 24 h) was 16.9%, the FITC- cells ([5]; 24 h) was 83.1% and the “% apoptosis (FITC+)” value ([5]; 48 h) was 18.0%. For the same molecule, the FITC- cells ([5]; 48 h) was 82.0%, the IC50 [6] was 4.49 ± 0.34 µM and the “BCL-2 RE value, fold lower than the control” value (BCL-2 [7]; 24 h) was 1.92 fold. The “BCL-2 RE value, fold lower than the control” value (BCL-2 [7]; 48 h) was 2.32 fold, the “RE of cyclin B1” value (cyclin B1; 24 h) was 0.80 and the “RE of cyclin B1” value (cyclin B1; 48 h) was 0.69. The “increase of cell percentage of sub-G1 compared to the untreated control” value [8] was 2.59 times, the “% apoptosis (FITC+)” value ([9]; 24 h) was 1.1% and the FITC- cells ([9]; 24 h) was 98.9%. For the same molecule, the “increase in apoptotic process over the control” value ([9]; 24 h) was 1.30 fold, the “% apoptosis (FITC+)” value ([9]; 48 h) was 40.5% and the FITC- cells ([9]; 48 h) was 59.5%. The “% apoptosis (FITC+)” value ([10]; 24 h) was 2.9% and 2.87%, the FITC- cells ([10]; 24 h) was 97.1% and the “% apoptosis (FITC+)” value ([10]; 48 h) was 10.3%. For the same molecule, the FITC- cells ([10]; 48 h) was 89.7%, the “increase in cell apoptosis compared to the non-treated control” value ([10]; 48 h) was 2.67 fold and the “cells in G2 phase” value ([11]; 24 h) was 30.1%. The “cells in G2 phase” value ([11]; 48 h) was 29.2%, the “RE of CDK1” value (CDK1; 24 h) was 1.10 and the “RE of CDK1” value (CDK1; 48 h) was 0.75. For the same molecule, the “RE of phosphorylated p-38/total p-38” value ([12]; 24 h) was 2.47, the “RE of phosphorylated p-38/total p-38” value ([12]; 48 h) was 2.35 and the IC50 [1] was 5090 ± 580 nM. For the same molecule, the “inhibition of BCL-2 expression compared to the control” value (BCL-2 [13]; 24 h) was 2.37 times, the “decrease of BCL-2 expression over the control” value (BCL-2 [13]; 48 h) was 4.41 fold and the inhibition at 10 µM [14] was 38 ± 2.29%.
For C=C[C@]1(C)CC[C@@H]2C(=C[C@H]3OC(=O)[C@@]4(C)C(=O)CC[C@@]2(C)[C@@H]34)C1 [MA, momilactone A], the inhibition at 10 µM ([6]; HL-60, 10 µM, 48 h, read-out: HL-60 inhibition percentage at 10 µM) was 30.2%, the inhibition at 10 µM ([1]; U-266, U266, 10 µM, 48 h, read-out: U266 inhibition percentage at 10 µM) was 41% and the inhibition at 10 µM [14] was 28.5 ± 2.93%.
COc1cccc2c1C(=O)c1c(O)c3c(c(O)c1C2=O)C[C@@](O)(C(=O)CO)C[C@@H]3O[C@H]1C[C@H](N)[C@H](O)[C@H](C)O1 [Doxorubicin, doxorubicin, reference compound] was tested, and the IC50 [6] was 5.22 ± 0.15 µM, the IC50 [1] was 240 ± 10 nM and the inhibition at 10 µM [14] was 49.2 ± 6.17%.
Molecule CC1=C(/C=C/C(C)=C/C=C/C(C)=C/C(=O)O)C(C)(C)CCC1 [ATRA, all-trans retinoic acid, reference compound] has an IC50 [6] of 3.99 ± 0.16 µM.

Source: article PMC9564300, “Cytotoxic Mechanism of Momilactones A and B against Acute Promyelocytic Leukemia and Multiple Myeloma Cell Lines” (Cancers, 2022)
